Where two headings read alike, the source gives them in different places.
Key:
[1] = molecular target: T1, prion protein (recombinant mouse PrP, recPrP) (Mus musculus, UniProt P04925); assay: biochemical
T1 construct: gene Prnp

[2] = molecular target: T1, prion protein (recombinant mouse PrP, recPrP); assay: biochemical; remark: listed apart in the source
[3] = molecular target: T1, prion protein (recombinant mouse PrP, recPrP); format: biochemical

T1 sequence (P04925 23-231 limits assumed): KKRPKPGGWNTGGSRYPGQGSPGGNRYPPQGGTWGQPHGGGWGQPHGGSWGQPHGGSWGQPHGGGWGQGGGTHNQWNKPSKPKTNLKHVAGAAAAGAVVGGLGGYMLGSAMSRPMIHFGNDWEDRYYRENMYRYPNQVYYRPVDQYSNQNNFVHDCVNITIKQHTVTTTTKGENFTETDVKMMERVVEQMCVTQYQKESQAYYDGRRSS

How did the EC50 [1] turn out when O=C(NNC(=S)Nc1ccc(Cl)cc1)c1cc2cccc(O)c2cc1O [7x] was run?
Its EC50 is 4.6 µM.

For CCOc1cc(C(=O)NNC(=S)Nc2ccc(Cl)cc2)c(O)c2ccccc12 [7y], which EC50 [2] is on record?
The EC50 was 5 µM.

Which “PrP aggregate formation assay (ThT fluorescence) with purified recPrP, single co” value [3] does the source give for Cc1cc(Nc2ccc(NC(=O)c3ccc(Nc4ccnc5ccccc45)cc3)cc2)nc(N)n1 [SGI-1027] here?
The value was “The anti-PrP aggregation activity of 7x and 7y was further compared to that of SGI-1027 (a positive control)”.
